Laboratory results reported in US7682618B2 (priority 2001, dated 2010).

Key:
[1] = system: EBOV infection of Vero E6 cells; format: cell-based, Ebola virus
[2] = system: Vero E6 cells
[3] = system: Ebola GP in lipid rafts of 293T cells; format: cell-based, human

CCCCC[C@@H](O)[C@H]1C(=O)O[C@H](C)[C@@H](O)/C=C/C=C/C=C/C=C/C=C(\C)[C@@H](O)C[C@H](O)C[C@H](O)C[C@H](O)C[C@H](O)C[C@H](O)C[C@@H]1O [filipin]
EBOV infection, viral titer 48 hour post infection [1]: significant inhibition of EBOV infection | virus production after recovery from drug treatment [1]: could produce large amounts of virus | general cytotoxic effect, trypan blue exclusion [2]: viable

methyl-β-cyclodextrin
association of Ebola GP with rafts (detergent insoluble fraction) [3]: almost complete removal of Ebola GP from rafts

nystatin
general cytotoxic effect, trypan blue exclusion [2]: viable
